The text below walks through data of ChEMBL document CHEMBL1149982, “Synthesis and in vitro profile of 7-substituted quinoline chromanols as novel, non-acidic LTB4 antagonists” (Bioorg Med Chem Lett, 1995).

pKi: −log10 of the molar value.

In experiment [1] the target is Leukotriene B4 receptor 1 (Homo sapiens, UniProt Q15722). Nature of the experiment: In vitro inhibitory activity against human neutrophil leukotriene B4 (LTB4).
For experiment [2], the target named is T1, Cysteinyl leukotriene receptor 1 (Cavia porcellus, UniProt Q2NNR5).
T1 sequence (Q2NNR5 whole entry): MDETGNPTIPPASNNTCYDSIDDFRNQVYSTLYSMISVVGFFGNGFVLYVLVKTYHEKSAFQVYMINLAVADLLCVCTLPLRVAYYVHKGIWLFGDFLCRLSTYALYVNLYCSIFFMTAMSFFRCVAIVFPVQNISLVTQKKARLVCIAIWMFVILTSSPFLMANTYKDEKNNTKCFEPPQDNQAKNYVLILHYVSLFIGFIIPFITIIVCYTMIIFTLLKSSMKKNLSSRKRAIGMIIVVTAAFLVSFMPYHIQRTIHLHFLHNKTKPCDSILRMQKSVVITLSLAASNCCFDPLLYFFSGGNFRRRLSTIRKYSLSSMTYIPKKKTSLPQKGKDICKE
The experiment in a line: In vitro inhibitory activity against leukotriene D4 receptor.

Experiment [3] deals with T1, Cysteinyl leukotriene receptor 1. Nature of the experiment: In vitro inhibitory activity against human leukotriene D4 (LTD4).

Sequence of Leukotriene B4 receptor 1 (Q15722 whole entry): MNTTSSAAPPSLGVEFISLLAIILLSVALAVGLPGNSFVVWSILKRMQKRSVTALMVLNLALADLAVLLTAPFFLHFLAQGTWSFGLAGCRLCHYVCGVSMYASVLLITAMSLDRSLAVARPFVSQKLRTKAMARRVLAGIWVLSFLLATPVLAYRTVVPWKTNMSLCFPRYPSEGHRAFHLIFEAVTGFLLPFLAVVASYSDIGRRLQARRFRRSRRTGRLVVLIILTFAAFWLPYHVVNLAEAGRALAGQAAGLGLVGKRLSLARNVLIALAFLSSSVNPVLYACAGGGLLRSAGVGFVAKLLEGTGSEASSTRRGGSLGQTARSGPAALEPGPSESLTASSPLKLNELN

In general, pKi refers to the Ki on a negative log10 scale, so that one unit is a factor of ten. Turning to `CC(Oc1ccc2c(c1)OC[C@@H](Cc1ccccn1)[C@@H]2O)c1ccc2ccccc2n1` (stereo partly specified), the values for the pKi in experiment [1] and in experiment [2] were 6.62 and less than 4.30, respectively.
Regarding `O[C@@H]1c2ccc(OCc3ccc4ccccc4n3)cc2OC[C@H]1Cc1cccnc1`, the pKi in experiment [2] is 5.39.
Consider `C[C@@H](Oc1ccc2c(c1)OC[C@@H](Cc1cccnc1)[C@@H]2O)c1ccc2ccccc2n1`, for which the pKi is 6.48 in experiment [1] and less than 4.30 in experiment [2].
Take `CC(Oc1ccc2c(c1)OC[C@H](Cc1ccccn1)[C@@H]2O)c1ccc2ccccc2n1` (stereo partly specified): the values for the pKi in experiment [1] and in experiment [2] were 5.48 and less than 4.30, respectively.
For `O[C@@H]1c2cc(OCc3ccc4ccccc4n3)ccc2OC[C@H]1Cc1cccnc1`, the pKi was 4.80 in experiment [1] and 6.00 in experiment [2].
Consider `C[C@H](Oc1ccc2c(c1)OC[C@@H](Cc1cccnc1)[C@@H]2O)c1ccc2ccccc2n1`, for which the results for the pKi in experiment [1] and in experiment [2] were 5.72 and less than 4.30, respectively.
Turning to `O[C@@H]1c2ccc(OCc3ccc4ccccc4n3)cc2OC[C@@H]1Cc1cccnc1`, the pKi in experiment [2] is 5.89.
`CC(Oc1ccc2c(c1)OC[C@H](Cc1cccnc1)[C@@H]2O)c1ccc2ccccc2n1` (stereo partly specified): the figures for the pKi in experiment [1] and in experiment [2] were 5.28 and less than 4.30, respectively.
In the case of `O[C@@H]1c2cc(OCc3ccc4ccccc4n3)ccc2OC[C@@H]1Cc1cccnc1`, the negative logarithm of the Ki (pKi) in experiment [1] was 4.42; in experiment [3], 5.80.
